Measurements: DBAASP
In brackets after ≈: the same amount, converted by molar mass. Each block holds one compound with its values, some of them ahead of it.

Assays:
Test in all cases: ≥ marks a high value that may be exact or a test limit, other limits are often not marked, values filed in µg/mL are converted to µM
[1] = system: Staphylococcus aureus ATCC 25923
[2] = system: Candida albicans NCTC 3179
[3] = system: Escherichia coli ATCC 25922
[4] = system: Streptococcus sanguinis ATCC 10556
[5] = system: Streptococcus mutans UA159
[6] = system: Streptococcus sobrinus ATCC 6715
[7] = system: Candida albicans ATCC 20032
[8] = system: Bacillus subtilis ATCC 6633
[9] = system: Pseudomonas aeruginosa H1030
[10] = system: Enterococcus faecalis f43559
[11] = system: Stenotrophomonas maltophilia ATCC 13637
[12] = system: Pseudomonas aeruginosa 213
[13] = system: Enterococcus faecalis ATCC 29212
[14] = system: Staphylococcus aureus C623
[15] = system: Enterococcus faecalis W61950
[16] = system: Pseudomonas aeruginosa H1027
[17] = system: Enterococcus faecium mic80
[18] = system: Pseudomonas aeruginosa 9
[19] = system: Pseudomonas aeruginosa LES400
[20] = system: Klebsiella pneumoniae ESBL 61962
[21] = system: Escherichia coli ESBL 63103
[22] = system: Klebsiella pneumoniae ESBL 63575
[23] = system: Enterococcus faecium t62764
[24] = system: Pseudomonas aeruginosa PAO1 H103
[25] = system: Enterobacter cloacae 218R
[26] = system: Pseudomonas aeruginosa 198
[27] = system: Escherichia coli ESBL 64771
[28] = system: Staphylococcus sp. BCRC 10451
[29] = system: Staphylococcus aureus
[30] = system: Candida albicans ATCC 90028
[31] = system: Bacillus subtilis
[32] = system: Escherichia coli
[33] = system: Enterobacter cloacae
[34] = system: Pseudomonas aeruginosa ATCC 27853
[35] = system: Pseudomonas aeruginosa
[36] = system: Salmonella enterica subsp. enterica serovar Typhi

MIC [1]: 4.68 µM (≈ 9.4 µg/mL) | MIC [7]: 9.37 µM (≈ 18.8 µg/mL) | MIC [8]: 4.68 µM (≈ 9.4 µg/mL) | MIC [3]: 18.7 µM (≈ 37.5 µg/mL)
SMILES: CC[C@H](C)[C@H](NC(=O)CN)C(=O)NCC(=O)NCC(=O)N[C@@H](C)C(=O)N[C@@H](CC(C)C)C(=O)N[C@@H](CC(C)C)C(=O)N[C@@H](CO)C(=O)N[C@@H](C)C(=O)NCC(=O)N[C@@H](CCCCN)C(=O)N[C@@H](C)C(=O)N[C@@H](C)C(=O)N[C@@H](CC(C)C)C(=O)N[C@@H](CCCCN)C(=O)NCC(=O)N[C@@H](CC(C)C)C(=O)N[C@@H](C)C(=O)N[C@@H](CCCCN)C(=O)N[C@H](C(=O)N[C@@H](CC(C)C)C(=O)N[C@H](C(N)=O)C(C)C)C(C)C [GIGGALLSAGKAALKGLAKVLV]

MIC [9]: 24 µM (≈ 34 µg/mL) | MIC [10]: 24 µM (≈ 34 µg/mL) | MIC [11]: 0.777 µM (≈ 1.1 µg/mL) | MIC [12]: 24 µM (≈ 34 µg/mL) | MIC [13]: 12 µM (≈ 17 µg/mL) | MIC [14]: 1.48 µM (≈ 2.1 µg/mL) | MIC [15]: 24 µM (≈ 34 µg/mL) | MIC [1]: 1.48 µM (≈ 2.1 µg/mL) | MIC [16]: 2.97 µM (≈ 4.2 µg/mL) | MIC [17]: 2.97 µM (≈ 4.2 µg/mL) | MIC [18]: 24 µM (≈ 34 µg/mL) | MIC [19]: 6 µM (≈ 8.5 µg/mL) | MIC [20]: ≥ 48 µM | MIC [21]: 12 µM (≈ 17 µg/mL) | MIC [22]: 6 µM (≈ 8.5 µg/mL) | MIC [23]: 1.48 µM (≈ 2.1 µg/mL) | MIC [24]: 2.97 µM (≈ 4.2 µg/mL) | MIC [25]: 2.97 µM (≈ 4.2 µg/mL) | MIC [26]: 6 µM (≈ 8.5 µg/mL) | MIC [27]: 2.97 µM (≈ 4.2 µg/mL)
SMILES: CC[C@H](C)[C@H](N)C(=O)N[C@@H](Cc1c[nH]c2ccccc12)C(=O)N[C@@H](Cc1c[nH]c2ccccc12)C(=O)N[C@@H](CCCCN)C(=O)N[C@@H](Cc1c[nH]c2ccccc12)C(=O)N[C@@H](CCCN=C(N)N)C(=O)N[C@@H](CCCN=C(N)N)C(=O)N[C@@H](Cc1c[nH]c2ccccc12)C(=O)N[C@H](C(=O)O)C(C)C [IWWKWRRWV]

MIC [9]: ≥ 47.1 µM | MIC [10]: 23.9 µM (≈ 34 µg/mL) | MIC [11]: 1.48 µM (≈ 2.1 µg/mL) | MIC [12]: ≥ 95 µM | MIC [13]: 5.91 µM (≈ 8.4 µg/mL) | MIC [14]: 12 µM (≈ 17 µg/mL) | MIC [15]: 23.9 µM (≈ 34 µg/mL) | MIC [1]: 12 µM (≈ 17 µg/mL) | MIC [16]: 5.91 µM (≈ 8.4 µg/mL) | MIC [17]: 5.91 µM (≈ 8.4 µg/mL) | MIC [18]: ≥ 95 µM | MIC [19]: ≥ 47.1 µM | MIC [20]: ≥ 95 µM | MIC [21]: 12 µM (≈ 17 µg/mL) | MIC [22]: ≥ 95 µM | MIC [23]: 1.48 µM (≈ 2.1 µg/mL) | MIC [24]: 23.9 µM (≈ 34 µg/mL) | MIC [25]: 12 µM (≈ 17 µg/mL) | MIC [26]: ≥ 47.1 µM | MIC [27]: 12 µM (≈ 17 µg/mL)
SMILES: CC[C@H](C)[C@H](NC(=O)[C@H](CCCN=C(N)N)NC(=O)[C@H](C)NC(=O)[C@H](CC(C)C)NC(=O)[C@@H](N)CCCN=C(N)N)C(=O)N[C@H](C(=O)N[C@H](C(=O)N[C@H](C(=O)N[C@@H](CCCN=C(N)N)C(=O)N[C@H](C(=O)N[C@@H](C)C(=O)N[C@@H](CCCN=C(N)N)C(=O)O)C(C)C)[C@@H](C)CC)C(C)C)C(C)C [RLARIVVIRVAR]

MIC [29]: 69.6 µM (≈ 128 µg/mL) | MIC [1]: 2.17 µM (≈ 4 µg/mL) | MIC [30]: ≥ 69.6 µM | MIC [31]: ≥ 34.8 µM | MIC [32]: 17.4 µM (≈ 32 µg/mL) | MIC [33]: ≥ 139 µM | MIC [3]: 69.6 µM (≈ 128 µg/mL) | MIC [34]: 69.6 µM (≈ 128 µg/mL) | MIC [35]: 17.4 µM (≈ 32 µg/mL) | MIC [36]: 17.4 µM (≈ 32 µg/mL)
SMILES: CC(C)C[C@H](NC(=O)[C@H](CCCCN)NC(=O)[C@H](CCCN=C(N)N)NC(=O)[C@H](Cc1ccccc1)NC(=O)[C@H](Cc1ccccc1)NC(=O)[C@H](CCCCN)NC(=O)[C@H](CCCCN)NC(=O)[C@H](Cc1ccccc1)NC(=O)[C@H](CCCN=C(N)N)NC(=O)[C@H](CCCCN)NC(=O)[C@@H](N)C(C)C)C(=O)N[C@@H](CCCCN)C(=O)N[C@@H](CCCCN)C(=O)N[C@@H](CO)C(N)=O [VKRFKKFFRKLKKS]

More lines, now with the values behind:

SMILES: CC[C@H](C)[C@H](NC(=O)[C@H](CCCCN)NC(=O)[C@@H](NC(=O)[C@@H](NC(=O)[C@H](CC(N)=O)NC(=O)[C@H](CCC(=O)O)NC(=O)[C@H](CCC(=O)O)NC(=O)[C@H](CCC(N)=O)NC(=O)[C@@H](N)CCC(=O)O)C(C)C)C(C)C)C(=O)N[C@@H](CCC(N)=O)C(=O)N[C@@H](C)C(=O)N[C@@H](Cc1ccccc1)C(=O)N[C@@H](Cc1c[nH]c2ccccc12)C(=O)N[C@@H](CCCCN)C(=O)NCC(=O)N[C@@H](Cc1ccc(O)cc1)C(=O)N[C@@H](CCCCN)C(=O)N[C@@H](CCC(N)=O)C(=O)N[C@@H](CCCN=C(N)N)C(=O)N[C@@H](CCCCN)C(=O)N[C@@H](CCC(=O)O)C(=O)N[C@@H](Cc1ccc(O)cc1)C(=O)N[C@@H](CCSC)C(=O)O [EQEENVVKIQAFWKGYKQRKEYM]
MIC [1]: 32.1 µM (≈ 94 µg/mL) | MIC [2]: 28.3 µM (≈ 83 µg/mL) | MIC [3]: 2.15 µM (≈ 6.3 µg/mL)

SMILES: NCCCC[C@H](NC(=O)[C@H](CCCCN)NC(=O)[C@H](Cc1ccccc1)NC(=O)[C@H](Cc1ccccc1)NC(=O)[C@H](CCCCN)NC(=O)[C@H](CCCCN)NC(=O)[C@H](Cc1ccccc1)NC(=O)[C@H](Cc1ccccc1)NC(=O)[C@H](CCCCN)NC(=O)[C@@H](N)Cc1ccccc1)C(=O)N[C@@H](Cc1c[nH]c2ccccc12)C(=O)O [FKFFKKFFKKW]
MIC [4]: 20.2 µM (≈ 32 µg/mL) | MIC [5]: 10.1 µM (≈ 16 µg/mL) | MIC [6]: 10.1 µM (≈ 16 µg/mL)

SMILES: CC[C@H](C)[C@H](NC(=O)CN)C(=O)NCC(=O)NCC(=O)N[C@@H](C)C(=O)N[C@@H](CC(C)C)C(=O)N[C@@H](CC(C)C)C(=O)N[C@@H](CO)C(=O)N[C@@H](C)C(=O)NCC(=O)N[C@@H](CCCCN)C(=O)N[C@@H](CO)C(=O)N[C@@H](C)C(=O)N[C@@H](CC(C)C)C(=O)N[C@@H](CCCCN)C(=O)NCC(=O)N[C@@H](CC(C)C)C(=O)N[C@@H](C)C(=O)N[C@@H](CCCCN)C(=O)NCC(=O)N[C@@H](CC(C)C)C(=O)N[C@@H](C)C(=O)N[C@@H](CCC(=O)O)C(=O)N[C@@H](Cc1cnc[nH]1)C(=O)N[C@@H](CC(C)C)C(N)=O [GIGGALLSAGKSALKGLAKGLAEHL]
MIC [1]: 8.06 µM (≈ 18.8 µg/mL) | MIC [7]: ≥ 42.9 µM | MIC [8]: ≥ 42.9 µM | MIC [3]: > 42.9 µM

SMILES: CC[C@H](C)[C@H](NC(=O)[C@H](CCCCN)NC(=O)[C@@H]1CCCN1C(C)=O)C(=O)N[C@H](C(=O)N[C@@H](CO)C(=O)N[C@@H](CO)C(=O)N1CCC[C@H]1C(=O)N[C@@H](CC(C)C)C(=O)N[C@@H](Cc1ccccc1)C(=O)N[C@@H](CCCCN)C(=O)N[C@H](C(=O)N[C@@H](CC(C)C)C(=O)N[C@@H](CC(C)C)C(=O)N[C@@H](CO)C(=O)N[C@@H](C)C(=O)N[C@H](C(=O)NCC(=O)N[C@@H](CO)C(=O)N[C@@H](C)C(=O)N[C@@H](CC(C)C)C(=O)N[C@@H](CO)C(=O)N[C@@H](CO)C(=O)N[C@@H](CO)C(=O)NCC(=O)NCC(=O)N[C@@H](CCC(N)=O)C(=O)N[C@@H](CCC(=O)O)C(N)=O)C(C)C)[C@@H](C)O)[C@@H](C)CC [PKIISSPLFKTLLSAVGSALSSSGGQE]
MIC [28]: ≥ 37.4 µM
